Experimental data from US6677316B2, “Adenosine derivatives and methods of administration” (SmithKline Beecham Corporation, priority 1998, dated 2004).

Experiments:
[1] = molecular target: T1, human adenosine A1 receptor (Homo sapiens, UniProt P30542); test: Reporter gene assay (CRE/SPAP) in CHO cells, agonist potency relative to NECA, adenosine A1 receptor; format: cell-based; parameters: key: equipotent concentration ratio, NECA = 1; conditions: ECR = equipotent concentration ratio relative to NECA = 1, inhibition of forskolin-stimulated SPAP production
T1 construct: expressed in transfected cells; host or cells: Chinese hamster ovary (CHO) cells with CRE/SPAP/HYG reporter elements
T1 sequence (P30542 1-326): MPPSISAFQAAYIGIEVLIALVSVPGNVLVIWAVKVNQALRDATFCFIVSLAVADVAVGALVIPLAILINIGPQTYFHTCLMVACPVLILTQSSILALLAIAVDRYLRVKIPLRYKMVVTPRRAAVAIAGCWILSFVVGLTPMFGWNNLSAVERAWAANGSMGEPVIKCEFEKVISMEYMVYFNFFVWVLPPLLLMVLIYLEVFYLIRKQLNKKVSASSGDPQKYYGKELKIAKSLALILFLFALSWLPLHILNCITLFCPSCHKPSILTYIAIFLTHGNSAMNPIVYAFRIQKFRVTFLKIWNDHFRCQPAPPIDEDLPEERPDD
Experimental: (§1) Reporter Gene Experiments
(§2) Agonist activity was measured in Chinese hamster ovary (CHO) cells containing the CRE/SPAP/HYG (CRE=cyclic AMP response element; HYG=hygromycin resistance; SPAP=secreted placental alkaline phosphatase) reporter gene elements, which upon stimulation of cAMP levels produced SPAP. A cell line was used, which was stably transfected with either the human adenosine A1 receptor or the human adenosine A3 receptor in addition to the above elements. Cells were plated out in 96-well plates in culture medium and incubated at 37° C. for 1 hour. For measurement of potency, agonists were added to the appropriate wells at a concentration range of approximately 10^−10- 10^−5M. 15Min later, cAMP levels were stimulated by addition of a maximal concentration of forskolin. All cells were then incubated for a further 5 hours at 37° C., and cooled to room temperature, after which a substrate for the phosphatase (para-nitrophenol phosphate, pNPP), which is converted by SPAP to a coloured reagent) was then added and the 96-well -plates were read in a plate reader. From these readings, the concentration-dependence of the inhibition by the agonist for forskolin-stimulated SPAP production can be calculated. One of the agonists tested on each 96-well plate was the standard non-selective agonist, N-ethylcarboxamidoadenosine (NECA), and the potency of all test agonists is expressed relative to that of the NECA standard.
(§3) (ECR=equipotent concentration ratio relative to NECA=1)

[2] = molecular target: T2, human adenosine A3 receptor (Homo sapiens, UniProt P0DMS8); test: Reporter gene assay (CRE/SPAP) in CHO cells, agonist potency relative to NECA, adenosine A3 receptor; format: cell-based; parameters: key: equipotent concentration ratio, NECA = 1; conditions: ECR = equipotent concentration ratio relative to NECA = 1, inhibition of forskolin-stimulated SPAP production
T2 construct: expressed in transfected cells; host or cells: Chinese hamster ovary (CHO) cells with CRE/SPAP/HYG reporter elements
T2 sequence (P0DMS8 1-318): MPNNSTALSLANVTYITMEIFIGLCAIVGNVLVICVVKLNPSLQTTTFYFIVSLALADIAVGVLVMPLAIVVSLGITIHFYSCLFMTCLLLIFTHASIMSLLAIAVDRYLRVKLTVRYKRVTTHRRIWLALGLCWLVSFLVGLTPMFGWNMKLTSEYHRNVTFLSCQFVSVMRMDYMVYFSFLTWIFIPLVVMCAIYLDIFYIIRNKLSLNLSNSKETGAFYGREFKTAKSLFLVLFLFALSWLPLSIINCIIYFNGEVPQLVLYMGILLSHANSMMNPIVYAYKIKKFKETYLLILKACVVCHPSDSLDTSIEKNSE
Experimental: as §1, §2, §3

Row | Adenosine A1 receptor ECR* [1] | Adenosine A3 receptor ECR* [2] | Structure (SMILES)
1 | 9.8 | 827.66 | CC(C)(C)c1nnc([C@H]2O[C@@H](n3cnc4c(Nc5ccc(Cl)cc5F)ncnc43)[C@H](O)[C@@H]2O)[nH]1 [Example 67, (2R,3S,4 R,5 R)-2-[5-(tert-butyl)-4H-1,2,4-triazol-3-yl]-5-[6-(4-chloro-2-fluoroanilino)-9H-purin-9-yl]tetrahydrofuran-3,4-diol]
2 | 5.15 | 172 | O[C@@H]1[C@H](O)[C@@H](c2nc(C3CC3)no2)O[C@H]1n1cnc2c(N[C@H]3CCC[C@@H]3O)ncnc21 [Example 19, (2S,3S,4R,5R)-2-(3-Cyclopropyl-[1,2,4]oxadiazol-5-yl)-5-[6-(2S-hydroxy-cyclopent-(S)-ylamino)-purin-9-yl]-tetrahydro-furan-3,4-diol]
3 | 15.96 | 717.99 | CC(C)c1noc([C@H]2O[C@@H](n3cnc4c(Nc5ccc(F)c(F)c5)ncnc43)[C@H](O)[C@@H]2O)n1 [Example 56, (2R,3R,4S,5S)-2-[6-(3,4-difluoroanilino)-9H-purin-9-yl]-5-(3-isopropyl-1,2,4-oxadiazol-5-yl)tetrahydrofuran-3,4-diol]
4 | 29.47 | 327 | O[C@@H]1[C@H](O)[C@@H](c2nc(C3CC3)no2)O[C@H]1n1cnc2c(Nc3ccc(Cl)cc3F)ncnc21 [Example 62, (2R,3R,4S,5S)-2-[6-(4-chloro-2-fluoroanilino)-9H-purin-9-yl]-5-(3-cyclopropyl-1,2,4-oxadiazol-5-yl)tetrahydrofuran-3,4-diol]
5 | 15.5 | >199 | COCc1noc([C@H]2O[C@@H](n3cnc4c(NC5CCCC5)ncnc43)[C@H](O)[C@@H]2O)n1 [Example 129, (2R,3R,4S,5S)-2-[6-(cyclopentylamino)-9H-purin-9-yl]-5-[3-(methoxymethyl)-1,2,4-oxadiazol-5-yl]tetrahydrofuran-3,4-diol]
6 | 20.78 | 715.31 | CNS(=O)(=O)CCNc1ncnc2c1ncn2[C@@H]1O[C@H](c2nc(C(C)C)no2)[C@@H](O)[C@H]1O [Example 54, 2-({9-[(2R,3R,4S,5S)-3,4-dihydroxy-5-(3-isopropyl-1,2,4-oxadiazol-5-yl)tetrahydrofuran-2-yl]-9H-purin-6-yl}amino)-N-methylethanesulfonamide]
7 | 0.21 | 21.62 | CNS(=O)(=O)CCNc1ncnc2c1ncn2[C@@H]1O[C@H](c2ncc(C)o2)[C@@H](O)[C@H]1O [Example 127, 2-({9-[(2R,3R,4S,5S)-3,4-dihydroxy-5-(5-methyl-1,3-oxazol-2-yl)tetrahydrofuran-2-yl]-9H-purin-6-yl}amino)-N-methylethanesulfonamide]
8 | 2.83 | 154 | CC(C)(C)c1cc([C@H]2O[C@@H](n3cnc4c(NC5CCS(=O)(=O)CC5)ncnc43)[C@H](O)[C@@H]2O)on1 [Example 119, (2S,3S,4 R,5R)-2-[3-(tert-butyl)isoxazol-5-yl]-5-{6-[(1,1-dioxidotetrahydro-2H-thiopyran-4-yl)amino]-9H-purin-9-yl}tetrahydrofuran-3,4-diol]
9 | 0.15 | 199.01 | CCc1nnc([C@H]2O[C@@H](n3cnc4c(NC(C)C)ncnc43)[C@H](O)[C@@H]2O)o1 [Example 131, (2S,3S,4R,5R)-2-(5-ethyl-1,3,4-oxadiazol-2-yl)-5-[6-(isopropylamino)-9H-purin-9-yl]tetrahydrofuran-3,4-diol]
10 | 8.75 | 423 | O[C@@H]1[C@H](O)[C@@H](c2nc(C3CC3)no2)O[C@H]1n1cnc2c(NC3CCOCC3)ncnc21 [Example 22, (2S,3S,4 R,5R)-2-(3-Cyclopropyl-[1,2,4]oxadiazol-5-yl)-5-[6-(tetrahydro-pyran4-ylamino)-purin-9-yl]-tetrahydro-furan-3,4-diol]
11 | 4.09 | 417.37 | CC(C)c1nnc([C@H]2O[C@@H](n3cnc4c(Nc5ccc(F)cc5Cl)ncnc43)[C@H](O)[C@@H]2O)[nH]1 [Example 68, (2R,3R,4S,5R)-2-[6-(2-chloro-4-fluoroanilino)-9H-purin-9-yl]-5-(5-isopropyl-4H-1,2,4-triazol-3-yl)tetrahydrofuran-3,4-diol]
12 | 4.16 | 152 | CC(C)(C)c1nnc([C@H]2O[C@@H](n3cnc4c(NC5CCOCC5)ncnc43)[C@H](O)[C@@H]2O)o1 [Example 3, (2S,3S,4R,5R)-2-(5-tert-Butyl-[1,3,4]oxadiazol-2-yl)-5-[6-(tetrahydro-pyran-4-ylamino)-purin-9-yl]-tetrahydro-furan-3,4-diol]
13 | 23.26 | 321 | CC(C)(C)c1noc([C@H]2O[C@@H](n3cnc4c(N[C@H]5CCC[C@@H]5O)ncnc43)[C@H](O)[C@@H]2O)n1 [Example 21, (2S,3S,4R,5R)-2-(3-tert-Butyl-[1,2,4]oxadiazol-5-yl)-5-[6-(2S-hydroxy-cyclopent-(S)-ylamino)-purin-9-yl]-tetrahydro-furan-3,4-diol]
14 | 7.36 | 165.54 | CC(C)CNc1ncnc2c1ncn2[C@@H]1O[C@H](c2nc(C(C)(C)C)no2)[C@@H](O)[C@H]1O [Example 45, (2S,3S,4R,5R)-2-[3-(tert-butyl)-1,2,4-oxadiazol-5-yl]-5-[6-(isobutylamino)-9H-purin-9-yl]tetrahydrofuran-3,4-diol]
15 | 7.56 | 587.75 | CC(C)c1noc([C@H]2O[C@@H](n3cnc4c(NC5CC5)ncnc43)[C@H](O)[C@@H]2O)n1 [Example 51, (2R,3R,4S,5S)-2-[6-(cyclopropylamino)-9H-purin-9-yl]-5-(3-isopropyl-1,2,4-oxadiazol-5-yl)tetrahydrofuran-3,4-diol]
16 | 0.53 | >22.4 | Cc1nnc([C@H]2O[C@@H](n3cnc4c(N[C@H]5CCC[C@@H]5O)ncnc43)[C@H](O)[C@@H]2O)o1 [Example 132, (2R,3R,4S,5S)-2-(6-{[(1 S,2S)-2-hydroxycyclopentyl]amino}-9H-purin-9-yl)-5-(5-methyl-1,3,4-oxadiazol-2-yl)tetrahydrofuran-3,4-diol]
17 | 10.64 | 228 | CC(C)(C)c1nnc([C@H]2O[C@@H](n3cnc4c(NC5CCOCC5)ncnc43)[C@H](O)[C@@H]2O)[nH]1 [Example 139, (2R,3S,4R,5R)-2-[5-(tert-butyl)-4H-1,2,4-triazol-3-yl]-5-[6-(tetrahydro-2H-pyran-4-ylamino)-9H-purin-9-yl]tetrahydrofuran-3,4-diol]
18 | 27.26 | 955 | CC(C)(C)c1nnc([C@H]2O[C@@H](n3cnc4c(Nc5ccc(F)cc5Cl)ncnc43)[C@H](O)[C@@H]2O)o1 [Example 116, (2S,3S,4R,5R)-2-[5-(tert-butyl)-1,3,4-oxadiazol-2-yl]-5-[6-(2-chloro-4-fluoroanilino)-9H-purin-9-yl]tetrahydrofuran-3,4-diol]

Row | Structure (SMILES) | Adenosine A1 receptor ECR* [1] | Adenosine A3 receptor ECR* [2]
19 | CCOC(=O)N1CCC(Nc2ncnc3c2ncn3[C@@H]2O[C@H](c3nnc(C(C)(C)C)o3)[C@@H](O)[C@H]2O)CC1 [Example 4, 4-{9-[5S-(5-tert-Butyl-[1,3,4]oxadiazol-2-yl)-3R,4S-dihydroxy-tetrahydro-furan-2R-yl]-9H-purin-6-ylamino}-piperidine-1-carboxylic acid ethyl ester] | 5.65 | 152
20 | CCc1cc([C@H]2O[C@@H](n3cnc4c(NC(CC)CC)nc(Cl)nc43)[C@H](O)[C@@H]2O)no1.O=CO [Example 163, (2R,3R,4S,5R)-2-{2-chloro-6-[(1-ethylpropyl)amino]-9H-purin-9-yl}-5-(5-ethylisoxazol-3-yl)tetrahydrofuran-3,4-diol Formate] | 1.34 | 232
